According to patent US6881719B2, “β-turn peptidomimetic cyclic compounds” (McGill University, priority 2000, dated 2005):
pKd: −log10 of the molar value.

Columns and labels:
[1] = target: T1, TrkA-ECD (Homo sapiens, UniProt P04629); assay: ELISA competition of mAb 5C3 binding to immobilized TrkA-ECD; conditions: for % Binding of mAb 5C3 to TrkA-ECD: mAb 5C3 2 nM
T1 construct: pure soluble TrkA extracellular domain (TrkA-ECD) produced in baculovirus; made in house
Description: Direct binding studies: were done as described (Saragovi et al., 1998) using 6 ng/well of recombinant baculovirus TrkA-extracellular domain protein (TrkA-ECD) or control bovine serum albumin (BSA, Fraction V, Boehringer Mannheim) immobilized onto 96-well microtest plates. Wells were blocked with binding buffer (BB: PBS with 1% BSA) for 1 hour. Then, 50 ng/well of biotinylated D3 were added as primary reagent in BB for 40 min in the absence or presence of excess non-biotinylated D3 as competitor. Wells were washed 5 times with BB, and horseradish peroxidase (HRP)-coupled avidin (Sigma) was added as secondary reagent for 30 min. Plates were washed in BB, and peroxidase activity was determined colorimetrically using 2,2-azinobis (3-ethylbenzthiazoline sulfonic acid) (ABTS, Sigma). The optical density (OD) was measured at 414 nm in a Microplate reader (Bio-Rad). Assays were repeated at least three times, n=4.
Binding Competition: studies were as described for direct binding assays to TrkA-ECD, except that as primary reagent 50 ng anti-TrkA mAb 5C3/well were added in BB, in the presence or absence of D3 or controls as competitors as described (Saragovi et al., 1998). Wells were washed 5 times with BB, and HRP-coupled goat anti-mouse was added as secondary reagent for 30 min. Plates were washed in BB, and peroxidase activity were determined. Assays were repeated at least three times, n=4.

[2] = system: septal neuronal cultures; assay: ChAT activity in septal neuronal cultures; format: cell-based, rat; conditions: day 8
Description: Cell cultures were established from the septal area of 17-day-old rat embryos. In brief, tissue was incubated in PBS containing trypsin and DNase. Tissue pieces then were mechanically dissociated. After centrifugation, the pellet was suspended in Leibovitz's L-15 medium. Cells were plated onto 96-multiwell NUNC dishes (10^5 cells/well) coated with poly-D-lysine (5 μg/ml). Pure cultures of septal neurons were treated 1 day after plating. Drugs, prepared in medium, were added directly to the cells without changing the initial medium. The incubation continued for 8 days, at which time ChAT activity was evaluated.
At day 8 of culture, the medium was aspirated, and ice-cold lysis buffer (10 mM sodium phosphate, pH 7.4/0.1% TritonX-100—Trade-mark) was added. ChAT activity assays were performed directly in the wells using Fonnum's method (Fonnum, 1975).

[3] = target: T2, TrkA•TrkA homodimers (4-3.6 cells) (Homo sapiens, UniProt P04629); assay: Detection of putative TrkA•TrkA homodimers by cross-linking and western blot; format: cell-based
T2 construct: expressed in transfected cells
T2 sequence (P04629 33-796): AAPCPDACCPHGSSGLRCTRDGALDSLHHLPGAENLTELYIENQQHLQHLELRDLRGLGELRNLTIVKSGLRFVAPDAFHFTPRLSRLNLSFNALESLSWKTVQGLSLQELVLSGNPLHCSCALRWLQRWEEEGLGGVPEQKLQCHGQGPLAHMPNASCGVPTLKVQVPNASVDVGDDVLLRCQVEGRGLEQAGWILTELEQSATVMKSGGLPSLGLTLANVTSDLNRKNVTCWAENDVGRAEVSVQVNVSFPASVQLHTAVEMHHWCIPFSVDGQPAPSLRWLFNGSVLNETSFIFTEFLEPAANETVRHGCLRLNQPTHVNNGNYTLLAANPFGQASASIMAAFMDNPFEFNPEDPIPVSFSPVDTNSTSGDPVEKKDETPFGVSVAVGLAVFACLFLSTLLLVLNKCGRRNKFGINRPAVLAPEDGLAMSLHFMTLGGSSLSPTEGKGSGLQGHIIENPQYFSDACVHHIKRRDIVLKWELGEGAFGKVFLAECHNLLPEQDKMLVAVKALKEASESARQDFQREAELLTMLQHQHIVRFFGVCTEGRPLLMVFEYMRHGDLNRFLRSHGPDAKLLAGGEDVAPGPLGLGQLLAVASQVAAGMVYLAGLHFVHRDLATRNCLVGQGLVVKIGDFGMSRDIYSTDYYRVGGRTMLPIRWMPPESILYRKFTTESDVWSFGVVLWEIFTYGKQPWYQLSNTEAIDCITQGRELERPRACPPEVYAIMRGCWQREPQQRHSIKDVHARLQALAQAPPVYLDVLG
Description: In FIG. 2, 4-3.6 cells were exposed to TrkA ligands as per Table 5 (lanes 1-4) or no ligand (lanes 5 and 6), and chemically cross-linked (lanes 1-5) or not cross-linked (lane 6). Cell lysates were western blotted with anti-TrkA 203 antisera.
Live 4-3.6 cells suspended in PBS were treated with the indicated ligand(s) for 40 min at 4° C. to allow binding. Cells were then washed in PBS, cross-linked with the membrane impermeable cross-linker disuccinimidyl suberate (DSS, Pierce; 1 mM DSS, 15 minutes at 15° C.). Unreacted DSS was quenched with 5 mM ammonium acetate. Then cells were either lysed directly in SDS sample buffer (whole cell lysate), or lysed in non-ionic detergent NP-40 and immunoprecipitated with anti-Trk or anti-p75 antibodies as described (LeSauteur et al., 1996). […] For western blot analysis, equal amounts of protein or cell equivalents for each sample were resolved in a 5-10% SDS-PAGE gradient, transferred to nitrocellulose membranes (Xymotech Biosystems, Montréal, Qc), and blotted with anti-Trk polyclonal antibody 203 that recognizes the intracellular domain of Trk. Blots were visualized using the enhanced chemiluminescence (ECL) system (New England Nuclear, Boston, Mass.).

[4] = target: T3, NIH3T3 fibroblasts expressing TrkC (Homo sapiens, UniProt Q16288); assay: Cell survival (MTT), NIH-TrkC; format: cell-based; conditions: for NIH-TrkC % Protection: 72 hours
T3 construct: expressed in transfected cells; host or cells: NIH3T3 fibroblasts
T3 sequence (Q16288 32-839): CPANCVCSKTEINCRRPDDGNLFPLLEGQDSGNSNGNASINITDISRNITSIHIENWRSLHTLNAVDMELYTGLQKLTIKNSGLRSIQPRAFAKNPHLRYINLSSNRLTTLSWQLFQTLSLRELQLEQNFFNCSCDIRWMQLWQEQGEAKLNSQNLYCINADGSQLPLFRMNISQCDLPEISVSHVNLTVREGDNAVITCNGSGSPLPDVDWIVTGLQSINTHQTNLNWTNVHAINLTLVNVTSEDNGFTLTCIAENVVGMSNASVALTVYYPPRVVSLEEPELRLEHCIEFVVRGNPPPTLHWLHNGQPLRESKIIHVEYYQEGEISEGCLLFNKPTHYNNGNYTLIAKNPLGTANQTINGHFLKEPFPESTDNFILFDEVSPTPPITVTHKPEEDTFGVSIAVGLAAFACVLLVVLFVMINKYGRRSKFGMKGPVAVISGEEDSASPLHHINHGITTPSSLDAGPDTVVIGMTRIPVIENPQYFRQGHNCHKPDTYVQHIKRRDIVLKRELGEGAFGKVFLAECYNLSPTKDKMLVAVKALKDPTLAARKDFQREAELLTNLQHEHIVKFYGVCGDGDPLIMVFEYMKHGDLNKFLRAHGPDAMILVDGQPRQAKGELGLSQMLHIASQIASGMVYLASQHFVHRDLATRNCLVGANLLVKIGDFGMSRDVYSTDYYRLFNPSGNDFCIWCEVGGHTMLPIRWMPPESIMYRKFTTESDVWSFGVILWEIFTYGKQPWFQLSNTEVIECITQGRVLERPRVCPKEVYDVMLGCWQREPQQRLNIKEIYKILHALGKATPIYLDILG
Description: (§1) The 4-3.6 cells are B104 cells stably transfected with human trkA cDNA, and express equal levels of p75 and TrkA (TrkA+ p75+). For screening agents that activate or antagonize TrkC receptors, NIH3T3 fibroblasts were stably transfected with human TrkC cDNA. These cells respond to the ligand NT-3. For screening agents that activate or antagonize TrkA receptors, NIH3T3 fibroblasts were stably transfected with human TrkA cDNA. These cells respond to the ligand NGF.
(§2) Cell lines: 5,000 cells/well in protein-free media (PFHM-II, GIBCO, Toronto) containing 0.2% bovine serum albumin (BSA) (Crystalline fraction V, Sigma, St. Louis, Mo.) were seeded in 96 well plates (Falcon, Mississauga, Ontario). The cultures were untreated, or treated with the indicated test or control ligands. Cell viability was quantitated using the MTT assay after 56-72 hours of culture. […] The OD of untreated cells were subtracted. The higher optical density of untreated primary cultures is likely due to cellular heterogeneity and to endogenous production of limiting amounts of growth factors.

[5] = system: B104 cells; assay: Cell survival control, B104 cells; format: cell-based, rat
Description: as §1, §2

[6] = Enhancement of trophic effect of EGF; format: cell-based
[7] = target: TrkA (Homo sapiens, UniProt P04629); assay: Inhibition of agonistic activity of mAb 5C3; format: cell-based
Chain of TrkA (P04629 33-796): as the sequence (P04629 33-796) above

T1 sequence (P04629 33-423 limits assumed): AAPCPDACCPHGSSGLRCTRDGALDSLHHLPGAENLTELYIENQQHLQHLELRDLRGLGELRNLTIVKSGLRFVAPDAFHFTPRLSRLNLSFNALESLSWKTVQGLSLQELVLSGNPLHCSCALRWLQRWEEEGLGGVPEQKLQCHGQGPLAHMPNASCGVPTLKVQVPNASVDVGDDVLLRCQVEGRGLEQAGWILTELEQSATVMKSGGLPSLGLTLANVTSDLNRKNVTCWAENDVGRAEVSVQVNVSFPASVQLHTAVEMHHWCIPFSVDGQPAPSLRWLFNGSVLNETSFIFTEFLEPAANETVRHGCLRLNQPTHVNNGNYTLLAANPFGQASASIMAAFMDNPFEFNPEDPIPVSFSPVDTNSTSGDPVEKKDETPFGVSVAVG

- pKd ([1]; calculated from the experimental IC50, read-out: Kd for D3•TrkA-ECD interactions): ~5.70
- % Binding of mAb 5C3 to TrkA-ECD ([1]; competitor 0.05 μM): 100 ± 14%
- % Binding of mAb 5C3 to TrkA-ECD ([1]; competitor 0.2 μM): 89 ± 8%
- % Binding of mAb 5C3 to TrkA-ECD ([1]; competitor 1 μM): 64 ± 10%
- % Binding of mAb 5C3 to TrkA-ECD ([1]; competitor 5 μM): 43 ± 12%
- % Binding of mAb 5C3 to TrkA-ECD ([1]; competitor 20 μM): 38 ± 7%
- % Binding of mAb 5C3 to TrkA-ECD ([1]; competitor 40 μM): 31 ± 4%
- intensity of the Mr 300 kDa band (TrkA dimers), standardized to 1 nM NGF (100%) ([3]; 10 pM NGF + 10 μM D3): 77±7%
- intensity of the Mr 300 kDa band (TrkA dimers), standardized to 1 nM NGF (100%) ([3]; 10 μM D3 alone): 21±4%
SMILES: NCCCC[C@@H]1NC(=O)[C@H](CCC(=O)O)NC(=O)c2cc([N+](=O)[O-])ccc2OCCC(C(=O)NCC(=O)O)NC1=O (stereo partly drawn) [D3, EKHse-G-OH]
- ChAT Activity ([2]; compound 0.2 μM + 10 pM NGF): 0.60 ± 0.04 pmol Ach/min/well
- Fold Increase (ChAT activity) ([2]; compound 0.2 μM + 10 pM NGF): 2.00
- ChAT Activity ([2]; compound 0.2 μM alone): 0.37 ± 0.05 pmol Ach/min/well
- Fold Increase (ChAT activity) ([2]; compound 0.2 μM alone): 1.23
- ChAT Activity ([2]; compound 2 μM + 10 pM NGF): 0.76 ± 0.03 pmol Ach/min/well
- Fold Increase (ChAT activity) ([2]; compound 2 μM + 10 pM NGF): 2.53
- ChAT Activity ([2]; compound 2 μM alone): 0.44 ± 0.02 pmol Ach/min/well
- Fold Increase (ChAT activity) ([2]; compound 2 μM alone): 1.47
- ChAT Activity ([2]; compound 20 μM + 10 pM NGF): 0.79 ± 0.04 pmol Ach/min/well
- Fold Increase (ChAT activity) ([2]; compound 20 μM + 10 pM NGF): 2.63
- ChAT Activity ([2]; compound 20 μM alone): 0.48 ± 0.06 pmol Ach/min/well
- Fold Increase (ChAT activity) ([2]; compound 20 μM alone): 1.56
- enhancement of NT-3 protection ([4]; NIH3T3 cells stably transfected with trkC cDNA): did not enhance NT-3 protection
- NIH-TrkC % Protection ([4]; agent 10 μM + 10 pM NGF): 6 ± 2%
- NIH-TrkC % Protection ([4]; agent 10 μM alone): 3 ± 3%
- protection from apoptosis [5]: neither D3 nor NGF protected
- enhancement of the trophic effect of EGF [6]: did not enhance
- inhibition of optimal agonistic activity of mAb 5C3 [7]: inhibited by D3 in a dose-dependent manner
